System: HLA-E
Assay: HLA-E expression on PBMCs after IFNγ treatment
Assay type: cell-based, human
Settings: PBMCs cultured with 5 ng ml^−1 IFNγ for 2 days; 3D12 flow cytometry

## IFNγ: interferon-γ (BioLegend, PeproTech)
  HLA-E surface expression on peripheral blood cells: increase in HLA-E surface expression
